± gives the standard deviation of the averaged measurements.
Experiment: TIMS collisional cross section (CCS, N2) of the lipid ion; higher = larger ion cross section
Conditions: ionization mode: negative, one isomer drawn
Method: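 Lipid extracts of human plasma (NIST SRM 1950), mouse liver or HeLa cells were separated by nanoflow C18 LC (30 min gradient) and analysed by TIMS-PASEF on a timsTOF Pro. Ion mobility was calibrated with the Agilent tuning mix (negative mode ions) and converted to collisional cross sections (Mason–Schamp, N2).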
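Further: lipids from MTBE extraction, five replicate injections per sample, 100 ms TIMS ramp spanning 0.6–1.95 Vs/cm², lipid identity assigned from PASEF MS/MS spectra.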

SMILES: CC/C=C\C/C=C\C/C=C\CCCCCCCC(=O)O[C@H](COC(=O)CCCCCCCCCCCCCCC)COP(=O)(O)OCCN [PE 16:0_18:3]
- TIMS collisional cross section (sample type: Mouse Liver, ion (formula + adduct): [C39H72NO8P-H] 1-): 264.9 Å²

SMILES: CCCCCCCCC/C=C\CCCCCCCC(=O)O[C@H](COC(=O)CCCCCCCCCCCCCCC)COP(=O)(O)OCCN [PE 16:0_19:1]
- TIMS collisional cross section (sample type: Mouse Liver, ion (formula + adduct): [C40H78NO8P-H] 1-): 271.2 Å²

SMILES: CCCCCCCC/C=C\CCCCCCCCCC(=O)O[C@H](COC(=O)CCCCCCCCCCCCCCC)COP(=O)(O)OCCN [PE 16:0_20:1]
- TIMS collisional cross section (sample type: Mouse Liver, ion (formula + adduct): [C41H80NO8P-H] 1-): 275.2 Å²

SMILES: CCCCC/C=C\C/C=C\C/C=C\C/C=C\CCCC(=O)O[C@H](COC(=O)CCCCCCCCCCCCCCC)COP(=O)(O)OCCN [PE 16:0_20:4]
- TIMS collisional cross section (sample type: Mouse Liver, ion (formula + adduct): [C41H74NO8P-H] 1-): 270.7 ± 0.46 Å²

SMILES: CCCCC/C=C\C/C=C\C/C=C\C/C=C\CCCCCC(=O)O[C@H](COC(=O)CCCCCCCCCCCCCCC)COP(=O)(O)OCCN [PE 16:0_22:4]
- TIMS collisional cross section (sample type: Human plasma, ion (formula + adduct): [C43H78NO8P-H] 1-): 276.8 Å²

SMILES: CC/C=C\C/C=C\C/C=C\C/C=C\C/C=C\C/C=C\CCC(=O)OC(COC(=O)CCCCCCCCCCCCCCC)COP(=O)(O)OCCN (centres undefined) [PE 16:0_22:6]
- TIMS collisional cross section (sample type: Mouse Liver, ion (formula + adduct): [C43H74NO8P-H] 1-): 274.62 ± 0.25 Å²

SMILES: CCCCCC/C=C\CCCCCCCC(=O)OC[C@H](COP(=O)(O)OCCN)OC(=O)CCCCCCCCCCCCCCC [PE 16:1_16:0]
- TIMS collisional cross section (sample type: Human plasma, ion (formula + adduct): [C37H72NO8P-H] 1-): 261.6 Å²
- TIMS collisional cross section (sample type: Mouse Liver, ion (formula + adduct): [C37H72NO8P-H] 1-): 261.6 Å²

SMILES: CCCCCC/C=C\CCCCCCCC(=O)OCC(COP(=O)(O)OCCN)OC(=O)CCCCCCC/C=C\CCCCCC (centres undefined) [PE 16:1_16:1]
- TIMS collisional cross section (sample type: Mouse Liver, ion (formula + adduct): [C37H70NO8P-H] 1-): 259.3 Å²

SMILES: CCCCCC/C=C\CCCCCCCC(=O)OC[C@H](COP(=O)(O)OCCN)OC(=O)CCCCCCC/C=C\CCCCCCC [PE 16:1_17:1]
- TIMS collisional cross section (sample type: Mouse Liver, ion (formula + adduct): [C38H72NO8P-H] 1-): 263.2 Å²

SMILES: CC/C=C\C/C=C\C/C=C\C/C=C\C/C=C\CCCC(=O)O[C@H](COC(=O)CCCCCCC/C=C\CCCCCC)COP(=O)(O)OCCN [PE 16:1_20:5]
- TIMS collisional cross section (sample type: Mouse Liver, ion (formula + adduct): [C41H70NO8P-H] 1-): 267.1 Å²

SMILES: CCCCC/C=C\C/C=C\CCCCCCCC(=O)O[C@H](COC(=O)CCCCCCCCCCCCCCCC)COP(=O)(O)OCCN [PE 17:0_18:2]
- TIMS collisional cross section (sample type: Mouse Liver, ion (formula + adduct): [C40H76NO8P-H] 1-): 269.4 Å²

SMILES: CCCCC/C=C\C/C=C\C/C=C\C/C=C\CCCC(=O)O[C@H](COC(=O)CCCCCCCCCCCCCCCC)COP(=O)(O)OCCN [PE 17:0_20:4]
- TIMS collisional cross section (sample type: Mouse Liver, ion (formula + adduct): [C42H76NO8P-H] 1-): 273.9 Å²

SMILES: CCCCC/C=C\C/C=C\CCCCCCCC(=O)O[C@H](COC(=O)CCCCCCC/C=C\CCCCCCC)COP(=O)(O)OCCN [PE 17:1_18:2]
- TIMS collisional cross section (sample type: Mouse Liver, ion (formula + adduct): [C40H74NO8P-H] 1-): 267.7 Å²

SMILES: CCCCC/C=C\C/C=C\C/C=C\C/C=C\CCCC(=O)O[C@H](COC(=O)CCCCCCC/C=C\CCCCCCC)COP(=O)(O)OCCN [PE 17:1_20:4]
- TIMS collisional cross section (sample type: Mouse Liver, ion (formula + adduct): [C42H74NO8P-H] 1-): 271.6 Å²

SMILES: CC/C=C\C/C=C\C/C=C\C/C=C\C/C=C\C/C=C\CCC(=O)O[C@H](COC(=O)CCCCCCC/C=C\CCCCCCC)COP(=O)(O)OCCN [PE 17:1_22:6]
- TIMS collisional cross section (sample type: Mouse Liver, ion (formula + adduct): [C44H74NO8P-H] 1-): 275.5 Å²

SMILES: CCCCC/C=C\C/C=C\CCCCCCCC(=O)OC(COC(=O)CCCCCCCCCCCCCCCCC)COP(=O)(O)OCCN (centres undefined) [PE 18:0@_18:2]
- TIMS collisional cross section (sample type: Human plasma, ion (formula + adduct): [C41H78NO8P-H] 1-): 273.4 Å²

SMILES: CC/C=C\C/C=C\C/C=C\C/C=C\C/C=C\C/C=C\CCC(=O)OC(COC(=O)CCCCCCCCCCCCCCCCC)COP(=O)(O)OCCN (centres undefined) [PE 18:0@_22:6]
- TIMS collisional cross section (sample type: Human plasma, ion (formula + adduct): [C45H78NO8P+AcO] 1-): 297.5 Å²

SMILES: CCCCCCCCCCCCCCCCCC(=O)OC[C@H](COP(=O)(O)OCCN)OC(=O)CCCCCCCCCCCCCCC [PE 18:0_16:0]
- TIMS collisional cross section (sample type: Mouse Liver, ion (formula + adduct): [C39H78NO8P-H] 1-): 269.5 Å²

— the supplement of paper PMC6965134
